# Organism: Rattus norvegicus
# Assay: Open TG-GATES - Regimen: Single
# Format: toxicity, organism-based, Sprague-Dawley
# Set-up: regimen Single, gender Male, age 6 weeks
# Settings: in vivo, po, route gavage; for AST / BUN / CRE / Ca / Cl / DBIL / GLC / IP / K / LDH / Na / PL / RALB / TBIL / TC / TG / TP / gamma-GTP / A/G / ALP / ALT: tissue Plasma; for APTT / Bas / Eos / Fbg / Hb / Ht / Lym / MCH / MCHC / MCV / Mono / Neu / PT / Plat / RBC / Ret / WBC: tissue Blood; for KIDNEY_L / KIDNEY_R / KIDNEY_TOTAL: tissue Kidney; for LIVER: tissue Liver
# [1] = 100 mg/kg, 24 h, dose level High
# [2] = 100 mg/kg, 24 h, dose level Low
# [3] = 300 mg/kg, 3 h, dose level Middle
# [4] = 300 mg/kg, 6 h, dose level Middle
smiles,measurement,setting,value
O=C1CN(/N=C/c2ccc([N+](=O)[O-])o2)C(=O)N1 [NITROFURANTOIN],AST,"100 mg/kg, 9 h, dose level Low",66 IU/L
same,BUN,"100 mg/kg, 9 h, dose level Low",14.8 mg/dL
same,CRE,"100 mg/kg, 9 h, dose level Low",0.4 mg/dL
same,Ca,"100 mg/kg, 9 h, dose level Low",11.2 mg/dL
same,Cl,"100 mg/kg, 9 h, dose level Low",105 meq/L
same,DBIL,"100 mg/kg, 9 h, dose level Low",0.01 mg/dL
same,GLC,"100 mg/kg, 9 h, dose level Low",187.2 mg/dL
same,IP,"100 mg/kg, 9 h, dose level Low",7.8 mg/dL
same,K,"100 mg/kg, 9 h, dose level Low",4.8 meq/L
same,LDH,"100 mg/kg, 9 h, dose level Low",62.8 IU/L
same,Na,"100 mg/kg, 9 h, dose level Low",138.2 meq/L
same,PL,"100 mg/kg, 9 h, dose level Low",137.8 mg/dL
same,RALB,"100 mg/kg, 9 h, dose level Low",3.8 g/dL
same,TBIL,"100 mg/kg, 9 h, dose level Low",0.03 mg/dL
same,TC,"100 mg/kg, 9 h, dose level Low",77.8 mg/dL
same,TG,"100 mg/kg, 9 h, dose level Low",91.2 mg/dL
same,TP,"100 mg/kg, 9 h, dose level Low",5.6 g/dL
same,gamma-GTP,"100 mg/kg, 9 h, dose level Low",1 IU/L
same,TERMINAL_BW,[1],237.1 g
same,TERMINAL_BW,[2],213.4 g
same,APTT,[1],18.4 s
same,Bas,[1],0%
same,Eos,[1],1%
same,Fbg,[1],214.8 mg/dL
same,Hb,[1],13.5 g/dL
same,Ht,[1],38.6%
same,Lym,[1],79.6%
same,MCH,[1],22.1 pg
same,MCHC,[1],35.2%
same,MCV,[1],62.9 fL
same,Mono,[1],2.6%
same,Neu,[1],15.2%
same,PT,[1],12.3 s
same,Plat,[1],116.3 x10_4/uL
same,RBC,[1],614.4 x10_4/ul
same,Ret,[1],6.9%
same,WBC,[1],90.9 x10_2/uL
same,APTT,[2],16.1 s
same,Eos,[2],0.8%
same,Fbg,[2],227 mg/dL
same,Hb,[2],13.1 g/dL
same,Ht,[2],40%
same,Lym,[2],74.8%
same,MCH,[2],20.8 pg
same,MCHC,[2],32.7%
same,MCV,[2],63.7 fL
same,Mono,[2],10.2%
same,Neu,[2],14.2%
same,PT,[2],12 s
same,Plat,[2],129.7 x10_4/uL
same,RBC,[2],628.4 x10_4/ul
same,Ret,[2],5.8%
same,WBC,[2],76.3 x10_2/uL
same,KIDNEY_L,[1],1.1 g
same,KIDNEY_R,[1],1.1 g
same,KIDNEY_TOTAL,[1],2.1 g
same,KIDNEY_L,[2],1 g
same,KIDNEY_R,[2],1 g
same,LIVER,[1],12.4 g
same,LIVER,[2],10.4 g
same,A/G,[1],1.6
same,ALP,[1],970.4 IU/L
same,ALT,[1],39.2 IU/L
same,AST,[1],63.4 IU/L
same,BUN,[1],15.8 mg/dL
same,CRE,[1],0.4 mg/dL
same,Ca,[1],10.8 mg/dL
same,Cl,[1],102.4 meq/L
same,DBIL,[1],0.1 mg/dL
same,GLC,[1],219.8 mg/dL
same,IP,[1],7.3 mg/dL
same,K,[1],4.3 meq/L
same,LDH,[1],196.4 IU/L
same,Na,[1],139.6 meq/L
same,PL,[1],159.2 mg/dL
same,RALB,[1],3.3 g/dL
same,TBIL,[1],0.2 mg/dL
same,TC,[1],79.2 mg/dL
same,TG,[1],112.4 mg/dL
same,TP,[1],5.4 g/dL
same,gamma-GTP,[1],0.6 IU/L
same,A/G,[2],2.2
same,ALP,[2],1379.2 IU/L
same,ALT,[2],32.6 IU/L
same,AST,[2],62.6 IU/L
same,BUN,[2],15.4 mg/dL
same,Ca,[2],11.1 mg/dL
same,Cl,[2],105.4 meq/L
same,DBIL,[2],0.01 mg/dL
same,GLC,[2],194.2 mg/dL
same,IP,[2],9.1 mg/dL
same,K,[2],4.7 meq/L
same,LDH,[2],73.4 IU/L
same,Na,[2],141 meq/L
same,PL,[2],150.8 mg/dL
same,RALB,[2],3.8 g/dL
same,TBIL,[2],0.028 mg/dL
same,TC,[2],85.8 mg/dL
same,TG,[2],118.6 mg/dL
same,TP,[2],5.6 g/dL
same,gamma-GTP,[2],0 IU/L
same,TERMINAL_BW,[3],206.1 g
same,APTT,[3],16.4 s
same,Bas,[3],0%
same,Eos,[3],1%
same,Fbg,[3],227.6 mg/dL
same,Hb,[3],13.2 g/dL
same,Ht,[3],40.2%
same,Lym,[3],72.2%
same,MCH,[3],21.2 pg
same,MCHC,[3],32.9%
same,MCV,[3],64.5 fL
same,Mono,[3],5%
same,Neu,[3],21.8%
same,PT,[3],11.9 s
same,Plat,[3],123.8 x10_4/uL
same,RBC,[3],623.2 x10_4/ul
same,Ret,[3],7.6%
same,WBC,[3],84.5 x10_2/uL
same,KIDNEY_L,[3],0.9 g
same,KIDNEY_R,[3],0.9 g
same,KIDNEY_TOTAL,[3],1.8 g
same,LIVER,[3],8.5 g
same,A/G,[3],2.2
same,ALP,[3],1192.4 IU/L
same,ALT,[3],38 IU/L
same,AST,[3],65 IU/L
same,BUN,[3],12.4 mg/dL
same,CRE,[3],0.4 mg/dL
same,Ca,[3],11.5 mg/dL
same,Cl,[3],103 meq/L
same,DBIL,[3],0.004 mg/dL
same,GLC,[3],185.2 mg/dL
same,IP,[3],10.1 mg/dL
same,K,[3],4.2 meq/L
same,LDH,[3],108.2 IU/L
same,Na,[3],138.6 meq/L
same,PL,[3],131.6 mg/dL
same,RALB,[3],4 g/dL
same,TBIL,[3],0.03 mg/dL
same,TC,[3],86.4 mg/dL
same,TG,[3],37.2 mg/dL
same,TP,[3],5.8 g/dL
same,gamma-GTP,[3],1 IU/L
same,TERMINAL_BW,[4],204.8 g
same,APTT,[4],16.7 s
same,Bas,[4],0%
same,Eos,[4],1.4%
